Tested on: Zymoseptoria tritici (Septoria tritici)
Experiment: Efficacy against Zymoseptoria tritici (SEPTTR) on wheat, two applications (stages A and B)
Assay type: in vivo
Settings: prothioconazole 520 mL/ha (130 g A/ha), fluxapyroxad 1424 mL/ha (89 g A/ha)
Procedure: The following formula was used to calculate the expected activity of mixtures containing active ingredients, A and B:
[formula] • where A=observed efficacy of active ingredient A at the same concentration as used in the mixture. • B=observed efficacy of active ingredient B at the same concentration as used in the mixture.
In the Colby method, the expected (or predicted) response of a combination of fungicides is calculated by taking the product of the observed response for each individual component of the combination when applied alone divided by 100 and subtracting this value from the sum of the observed response for each component when applied alone. An unexpected enhancement in efficacy of the combination is then determined by comparing the observed response of the combination to the expected (or predicted) response as calculated from the observed response of each individual component alone. If the observed response of the combination is greater than the expected (or predicted) response, or stated conversely, if the difference between the observed and expected response is greater than zero, then the combination is said to be synergistic or unexpectedly effective.
Efficacy of the combination of prothioconazole and fluxapyroxad was determined against Zymoseptoria tritici (Septoria tritici) in wheat crop. The actives prothioconazole and fluxapyroxad were tank mixed and applied as per the table below. Prothioconazole and fluxapyroxad were emulsifiable concentrate formulations with formulation concentrations of 250 g/L and 62.5 g/L, respectively. The applications were made twice at stages ‘A and ‘B’. Stage A was the time at which the first node was at least 1 cm above tillering node (Feekes 6.0=First node visible). Stage ‘B’ was the Flag leaf stage, wherein the flag leaf fully unrolled and ligule was visible (Feekes 9.0=Flag leaf). Applications were made at stage B which was 18 days after application A. The observations were made at 19 DA-A (19 days after application-A) as observed in table 1 (b) and at 23 DA-B (23 days after application B) as observed in Table 1 (c).

[1] = 19 DA-A (19 days after application A)
[2] = 23 DA-B (23 days after application B)

Structure (SMILES) | % Observed Control of Septoria tritici [1] | % Observed Control of Septoria tritici [2]
Cn1cc(C(=O)Nc2ccccc2-c2cc(F)c(F)c(F)c2)c(C(F)F)n1 [Fluxapyroxad, 3-(difluoromethyl)-1-methyl-N-(3′,4′,5′-trifluorobiphenyl-2-yl) pyrazole-4-carboxamide] | 25.6% | 37.8%
OC(Cc1ccccc1Cl)(Cn1[nH]cnc1=S)C1(Cl)CC1 (stereo not shown) [Prothioconazole, 2-[2-(1-chlorocyclopropyl)-3-(2-chlorophenyl)-2-hydroxypropyl]-1,2-dihydro-3H-1,2,4-triazole-3-thione] | 23.7% | 20.0%

— patent publication US20260223849A1, “FUNGICIDAL COMBINATION” (UPL MAURITIUS LIMITED, priority 2023, published 2026)
